Blank lines part the entries; values can stand above or below the molecule they belong to.
Assays:
[1] = target: Platelet-derived growth factor receptor beta (Homo sapiens, UniProt P09619)
Description: Inhibition of PDGFR-beta (unknown origin)

[2] = target: T1, Receptor-type tyrosine-protein kinase FLT3 (Homo sapiens, UniProt P36888)
T1 sequence (P36888 whole entry): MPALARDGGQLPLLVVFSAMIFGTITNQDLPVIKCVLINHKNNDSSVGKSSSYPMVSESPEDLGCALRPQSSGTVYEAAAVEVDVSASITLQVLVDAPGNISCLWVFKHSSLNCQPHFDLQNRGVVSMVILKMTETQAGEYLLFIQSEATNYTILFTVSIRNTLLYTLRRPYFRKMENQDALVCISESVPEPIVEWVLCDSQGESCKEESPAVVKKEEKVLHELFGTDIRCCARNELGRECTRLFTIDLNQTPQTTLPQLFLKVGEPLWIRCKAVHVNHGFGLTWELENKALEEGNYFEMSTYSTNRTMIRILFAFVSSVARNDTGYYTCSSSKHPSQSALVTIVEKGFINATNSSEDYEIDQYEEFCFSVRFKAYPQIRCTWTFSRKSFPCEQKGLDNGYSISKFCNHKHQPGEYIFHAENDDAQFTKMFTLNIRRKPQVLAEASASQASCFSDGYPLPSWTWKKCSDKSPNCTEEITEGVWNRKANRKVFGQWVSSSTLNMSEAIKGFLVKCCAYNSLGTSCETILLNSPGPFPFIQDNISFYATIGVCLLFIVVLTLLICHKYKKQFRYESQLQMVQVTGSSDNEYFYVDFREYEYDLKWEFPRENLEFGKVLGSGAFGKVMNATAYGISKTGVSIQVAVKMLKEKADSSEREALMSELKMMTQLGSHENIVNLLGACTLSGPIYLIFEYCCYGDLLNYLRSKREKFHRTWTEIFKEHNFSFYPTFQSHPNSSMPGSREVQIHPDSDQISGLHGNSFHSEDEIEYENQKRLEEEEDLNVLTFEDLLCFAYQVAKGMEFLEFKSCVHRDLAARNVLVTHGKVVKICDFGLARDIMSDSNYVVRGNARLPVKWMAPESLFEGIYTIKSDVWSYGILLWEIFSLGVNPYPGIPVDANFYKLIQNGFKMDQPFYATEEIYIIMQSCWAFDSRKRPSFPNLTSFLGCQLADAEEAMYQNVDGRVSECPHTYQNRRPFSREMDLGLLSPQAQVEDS
Description: Inhibition of FLT3 (unknown origin)

[3] = target: Platelet-derived growth factor receptor alpha (Homo sapiens, UniProt P16234)
Chain of Platelet-derived growth factor receptor alpha (P16234 whole entry): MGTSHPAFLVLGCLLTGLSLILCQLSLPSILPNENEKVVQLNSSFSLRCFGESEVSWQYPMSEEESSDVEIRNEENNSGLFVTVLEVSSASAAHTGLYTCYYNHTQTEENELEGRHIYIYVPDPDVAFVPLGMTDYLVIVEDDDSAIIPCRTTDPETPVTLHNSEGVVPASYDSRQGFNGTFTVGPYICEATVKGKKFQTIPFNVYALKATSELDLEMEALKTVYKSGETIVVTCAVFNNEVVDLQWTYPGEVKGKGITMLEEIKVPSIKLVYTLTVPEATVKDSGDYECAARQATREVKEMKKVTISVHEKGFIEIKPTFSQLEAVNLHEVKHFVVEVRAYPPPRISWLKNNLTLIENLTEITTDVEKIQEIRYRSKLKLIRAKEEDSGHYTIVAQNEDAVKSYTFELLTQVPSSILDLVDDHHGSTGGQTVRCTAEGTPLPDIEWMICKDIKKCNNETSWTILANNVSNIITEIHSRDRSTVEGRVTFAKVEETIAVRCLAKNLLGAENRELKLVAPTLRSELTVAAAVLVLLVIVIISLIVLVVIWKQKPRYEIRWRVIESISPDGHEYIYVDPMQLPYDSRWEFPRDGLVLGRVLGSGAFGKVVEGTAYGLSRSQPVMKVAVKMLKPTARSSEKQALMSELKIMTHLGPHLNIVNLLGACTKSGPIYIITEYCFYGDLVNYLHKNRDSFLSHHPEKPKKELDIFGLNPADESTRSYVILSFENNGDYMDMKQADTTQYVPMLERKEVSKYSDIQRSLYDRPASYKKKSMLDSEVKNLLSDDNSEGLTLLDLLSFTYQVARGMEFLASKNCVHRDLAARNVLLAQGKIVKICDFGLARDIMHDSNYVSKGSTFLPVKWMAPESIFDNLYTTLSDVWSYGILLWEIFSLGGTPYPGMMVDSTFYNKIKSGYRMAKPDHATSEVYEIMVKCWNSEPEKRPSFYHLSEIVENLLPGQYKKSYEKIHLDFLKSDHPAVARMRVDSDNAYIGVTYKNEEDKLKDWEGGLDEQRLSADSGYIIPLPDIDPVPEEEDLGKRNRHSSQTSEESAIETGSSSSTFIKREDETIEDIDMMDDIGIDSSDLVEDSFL
Description: Inhibition of PDGFR-alpha (unknown origin)

[4] = target: Voltage-gated inwardly rectifying potassium channel KCNH2 (Homo sapiens, UniProt Q12809); assay: Inhibition of hERG; format: toxicity
Chain of Voltage-gated inwardly rectifying potassium channel KCNH2 (Q12809 whole entry): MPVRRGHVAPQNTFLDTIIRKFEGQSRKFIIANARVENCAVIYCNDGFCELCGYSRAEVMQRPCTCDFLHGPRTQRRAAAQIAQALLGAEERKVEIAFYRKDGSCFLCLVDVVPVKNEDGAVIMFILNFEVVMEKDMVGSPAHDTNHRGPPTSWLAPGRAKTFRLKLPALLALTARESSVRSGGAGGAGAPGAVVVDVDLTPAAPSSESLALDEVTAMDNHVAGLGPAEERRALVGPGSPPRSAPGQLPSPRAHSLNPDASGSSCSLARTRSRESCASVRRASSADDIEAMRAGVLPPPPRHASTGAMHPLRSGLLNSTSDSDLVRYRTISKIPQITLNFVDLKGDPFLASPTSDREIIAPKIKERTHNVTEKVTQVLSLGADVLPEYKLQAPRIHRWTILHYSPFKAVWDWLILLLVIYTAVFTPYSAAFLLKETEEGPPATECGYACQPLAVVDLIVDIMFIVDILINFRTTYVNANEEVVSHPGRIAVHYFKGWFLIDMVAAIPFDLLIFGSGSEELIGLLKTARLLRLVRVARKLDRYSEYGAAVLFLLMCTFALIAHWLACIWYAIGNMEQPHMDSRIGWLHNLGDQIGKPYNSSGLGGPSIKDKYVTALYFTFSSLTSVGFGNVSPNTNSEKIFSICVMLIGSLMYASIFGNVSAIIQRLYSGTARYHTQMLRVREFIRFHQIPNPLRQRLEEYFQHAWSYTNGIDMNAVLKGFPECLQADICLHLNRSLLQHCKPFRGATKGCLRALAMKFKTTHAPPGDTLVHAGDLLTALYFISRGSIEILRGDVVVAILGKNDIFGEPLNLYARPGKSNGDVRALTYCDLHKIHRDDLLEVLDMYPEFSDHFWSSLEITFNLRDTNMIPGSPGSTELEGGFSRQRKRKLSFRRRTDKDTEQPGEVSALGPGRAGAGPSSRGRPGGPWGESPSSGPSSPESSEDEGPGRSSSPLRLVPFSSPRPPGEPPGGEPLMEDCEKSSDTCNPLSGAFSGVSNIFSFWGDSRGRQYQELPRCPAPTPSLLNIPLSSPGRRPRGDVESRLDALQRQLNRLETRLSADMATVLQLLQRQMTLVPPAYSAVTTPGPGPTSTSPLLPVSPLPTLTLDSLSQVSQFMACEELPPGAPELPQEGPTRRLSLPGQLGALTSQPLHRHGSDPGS

[5] = target: Vascular endothelial growth factor receptor 2 (Homo sapiens, UniProt P35968); assay: Inhibition of KDR (unknown origin)
Chain of Vascular endothelial growth factor receptor 2 (P35968 whole entry): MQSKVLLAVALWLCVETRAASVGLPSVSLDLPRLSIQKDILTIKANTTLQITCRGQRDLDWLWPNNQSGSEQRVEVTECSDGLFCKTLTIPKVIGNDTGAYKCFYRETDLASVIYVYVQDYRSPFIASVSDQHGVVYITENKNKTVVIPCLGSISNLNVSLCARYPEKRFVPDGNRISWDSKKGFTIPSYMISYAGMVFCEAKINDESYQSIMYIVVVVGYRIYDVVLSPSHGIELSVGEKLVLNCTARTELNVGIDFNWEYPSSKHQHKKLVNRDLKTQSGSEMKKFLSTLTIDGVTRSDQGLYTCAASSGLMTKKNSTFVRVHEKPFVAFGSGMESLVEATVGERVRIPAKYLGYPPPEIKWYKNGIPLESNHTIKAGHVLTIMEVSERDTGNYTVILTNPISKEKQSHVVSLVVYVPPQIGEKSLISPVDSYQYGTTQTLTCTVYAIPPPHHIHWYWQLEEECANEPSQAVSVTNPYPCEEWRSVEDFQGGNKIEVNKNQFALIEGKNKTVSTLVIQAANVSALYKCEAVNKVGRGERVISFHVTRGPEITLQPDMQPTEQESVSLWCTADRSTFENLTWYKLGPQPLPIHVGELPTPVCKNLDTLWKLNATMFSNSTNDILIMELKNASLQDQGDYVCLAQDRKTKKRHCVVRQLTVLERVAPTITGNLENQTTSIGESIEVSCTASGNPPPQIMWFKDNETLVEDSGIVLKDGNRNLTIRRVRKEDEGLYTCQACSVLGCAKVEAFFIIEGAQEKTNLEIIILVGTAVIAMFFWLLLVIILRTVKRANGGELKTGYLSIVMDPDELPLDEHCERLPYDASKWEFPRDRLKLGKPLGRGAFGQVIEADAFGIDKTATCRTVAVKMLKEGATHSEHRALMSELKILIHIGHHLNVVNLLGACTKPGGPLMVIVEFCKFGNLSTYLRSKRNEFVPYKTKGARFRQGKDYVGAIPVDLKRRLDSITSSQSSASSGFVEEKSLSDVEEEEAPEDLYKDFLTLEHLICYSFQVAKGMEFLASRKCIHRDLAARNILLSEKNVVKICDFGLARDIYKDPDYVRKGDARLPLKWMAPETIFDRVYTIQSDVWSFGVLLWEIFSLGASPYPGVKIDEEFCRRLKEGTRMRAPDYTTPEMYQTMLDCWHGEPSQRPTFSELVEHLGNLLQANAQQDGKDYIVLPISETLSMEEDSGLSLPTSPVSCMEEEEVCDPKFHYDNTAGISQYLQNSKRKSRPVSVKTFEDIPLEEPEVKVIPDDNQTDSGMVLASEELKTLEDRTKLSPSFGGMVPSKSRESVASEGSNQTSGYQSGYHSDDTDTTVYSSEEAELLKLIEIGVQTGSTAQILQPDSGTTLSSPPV

Huh-7 = assay: Anti-proliferative activity against human Huh-7 cells
HepG2 = assay: Anti-proliferative activity against human HepG2 cells
Hep 3B2 [6] = assay: Anti-proliferative activity against human Hep3B cells
HT-29 = assay: Anti-proliferative activity against human HT-29 cells
HCT-116 = assay: cells; details: Homo sapiens
Description: Anti-proliferative activity against human HCT-116 cells

SNU-16 = assay: Anti-proliferative activity against human SNU-16 cells; format: functional, cell-based
[7] = Anti-proliferative activity against human KATO III cells
[8] = Toxicity in BALB/c mouse xenografted with human Hep3B cells assessed as body weight loss at 60 mg/kg, po qd measured for 25 days; format: organism-based; details: in vivo, 600 h, time 25 day
Hep 3B2 [9] = assay: Antitumor activity against human Hep3B cells xenografted in BALB/c mouse at 60 mg/kg, po qd treated for 10 days followed by discontinuation of administration and re-continuation on day 18 measured after 7 days relative to control; details: read-out: TGI

Chain of Platelet-derived growth factor receptor beta (P09619 whole entry): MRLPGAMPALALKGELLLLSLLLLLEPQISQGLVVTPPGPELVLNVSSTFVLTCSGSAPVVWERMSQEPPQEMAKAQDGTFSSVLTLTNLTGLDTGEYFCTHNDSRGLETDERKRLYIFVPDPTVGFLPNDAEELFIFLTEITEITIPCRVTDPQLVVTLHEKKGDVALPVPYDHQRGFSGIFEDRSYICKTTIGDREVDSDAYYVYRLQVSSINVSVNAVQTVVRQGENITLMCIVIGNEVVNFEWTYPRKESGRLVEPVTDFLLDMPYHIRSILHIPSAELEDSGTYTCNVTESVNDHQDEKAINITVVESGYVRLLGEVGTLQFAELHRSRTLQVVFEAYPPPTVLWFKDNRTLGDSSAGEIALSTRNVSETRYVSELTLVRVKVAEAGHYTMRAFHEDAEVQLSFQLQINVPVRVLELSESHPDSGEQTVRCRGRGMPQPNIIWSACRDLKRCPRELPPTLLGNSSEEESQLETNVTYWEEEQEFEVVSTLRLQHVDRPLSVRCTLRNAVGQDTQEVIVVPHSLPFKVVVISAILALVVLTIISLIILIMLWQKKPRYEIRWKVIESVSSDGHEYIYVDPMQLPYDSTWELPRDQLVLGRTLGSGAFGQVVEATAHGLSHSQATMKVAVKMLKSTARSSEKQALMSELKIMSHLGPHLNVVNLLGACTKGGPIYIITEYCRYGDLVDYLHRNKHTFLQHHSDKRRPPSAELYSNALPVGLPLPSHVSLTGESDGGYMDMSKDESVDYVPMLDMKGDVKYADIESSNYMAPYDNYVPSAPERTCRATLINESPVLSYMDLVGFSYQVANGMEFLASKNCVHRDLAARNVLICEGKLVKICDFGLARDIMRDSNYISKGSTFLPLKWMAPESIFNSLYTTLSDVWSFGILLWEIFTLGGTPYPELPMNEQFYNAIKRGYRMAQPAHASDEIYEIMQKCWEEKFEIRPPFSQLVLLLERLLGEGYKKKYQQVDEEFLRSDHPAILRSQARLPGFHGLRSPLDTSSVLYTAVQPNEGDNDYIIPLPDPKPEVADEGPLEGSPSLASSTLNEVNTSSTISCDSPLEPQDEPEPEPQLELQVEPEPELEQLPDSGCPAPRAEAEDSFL

IC50 [1]: 1.3 nM
IC50 [2]: 0.73 nM
IC50 [3]: 0.28 nM
SMILES: CC(C)(C)c1cc(NC(=O)Cc2ccc(-n3cnc4cc(-c5cccnc5)ccc43)cc2)on1

IC50 [1]: 12 nM
IC50 [2]: 22 nM
IC50 [3]: 11 nM
SMILES: CC(C)(C)c1cc(NC(=O)Cc2ccc(-n3cnc4cc(C5CCNCC5)ccc43)cc2)on1

IC50 [1]: 0.89 nM
IC50 [2]: 0.33 nM
IC50 [3]: 0.18 nM
SMILES: CC(C)(C)c1cc(NC(=O)Cc2ccc(-n3cnc4cc(-c5cn[nH]c5)ccc43)cc2)on1
IC50 [4]: 26500 nM

IC50 [5]: 6.5 nM
SMILES: CC(C)(C)OC(=O)Cn1cc(-c2ccc3c(c2)ncn3-c2ccc(CC(=O)Nc3cc(C(C)(C)C)no3)cc2)cn1

IC50 [1]: 1.15 nM
IC50 [2]: 0.59 nM
IC50 [3]: 0.22 nM
SMILES: Cn1cc(-c2ccc3c(c2)ncn3-c2ccc(CC(=O)Nc3cc(C(C)(C)C)no3)cc2)cn1
IC50 [4]: 17900 nM

IC50 (Huh-7): 3660 nM
IC50 (HepG2): 3660 nM
IC50 (HT-29): 5840 nM
IC50 (HCT-116): 7260 nM
SMILES: COc1cc2nccc(Oc3ccc(NC(=O)C4(C(=O)Nc5ccc(F)cc5)CC4)cc3)c2cc1OC [CABOZANTINIB]
IC50 (Hep 3B2 [6]): 6500 nM

IC50 (SNU-16): 954 nM
IC50 (HT-29): 5350 nM
IC50 (HCT-116): 4430 nM
SMILES: CNC(=O)c1cc(Oc2ccc(NC(=O)Nc3ccc(Cl)c(C(F)(F)F)c3)cc2)ccn1 [SORAFENIB]
IC50 [7]: 569 nM
Activity [8]: ~ 16.32%
inhibition in vivo at 60 mg/kg (Hep 3B2 [9]): 34%
IC50 (Hep 3B2 [6]): 3330 nM
